This passage reports mutagenic call results from PubChem BioAssay AID1259407 (Chemical Carcinogenesis Research Information System (CCRIS), 2018).

SMILES strings stand for the structures. Calls of active or inactive are those of the source. The rule behind the calls is not given here.

For the series, the system named is CCRIS mutagenicity, Ames/micronucleus/aberration tests. Kind of series: CCRIS mutagenicity studies.
[1] abbreviates: Test System: AMES SALMONELLA TYPHIMURIUM, Strain/Indicator: TA98, Metabolic Activation: NONE, Method: STANDARD PLATE.
Setting [2] is: Test System: AMES SALMONELLA TYPHIMURIUM, Strain/Indicator: TA98, Metabolic Activation: RAT, LIVER, S-9, AROCLOR 1254, Method: STANDARD PLATE.
[3] abbreviates: Test System: AMES SALMONELLA TYPHIMURIUM, Strain/Indicator: TA100, Metabolic Activation: NONE, Method: STANDARD PLATE.
Where [4] appears, read: Test System: AMES SALMONELLA TYPHIMURIUM, Strain/Indicator: TA100, Metabolic Activation: RAT, LIVER, S-9, AROCLOR 1254, Method: STANDARD PLATE.
The mark [5] stands for this setting: Test System: AMES SALMONELLA TYPHIMURIUM, Strain/Indicator: TA1538, Metabolic Activation: NONE, Method: STANDARD PLATE.
The mark [6] stands for this setting: Test System: AMES SALMONELLA TYPHIMURIUM, Strain/Indicator: TA1538, Metabolic Activation: RAT, LIVER, S-9, AROCLOR 1254, Method: STANDARD PLATE.
[7] abbreviates: Test System: AMES SALMONELLA TYPHIMURIUM, Strain/Indicator: TA98, Metabolic Activation: NONE, Method: PREINCUBATION
Setting [8] is: Test System: AMES SALMONELLA TYPHIMURIUM, Strain/Indicator: TA100, Metabolic Activation: NONE, Method: PREINCUBATION

Turning to `CN1CCC(=C2c3ccccc3C=Cc3ccccc32)CC1`, the mutagenic call was “inactive; negative” under setting [1]; “inactive; negative” under setting [2]; “inactive; negative” under setting [3]; “inactive; negative” under setting [4]; “inactive; negative” (Test System: AMES SALMONELLA TYPHIMURIUM, Strain/Indicator: TA1535, Metabolic Activation: NONE, Method: STANDARD PLATE); “inactive; negative” (Test System: AMES SALMONELLA TYPHIMURIUM, Strain/Indicator: TA1535, Metabolic Activation: RAT, LIVER, S-9, AROCLOR 1254, Method: STANDARD PLATE). The mutagenic call is “inactive; negative” (Test System: AMES SALMONELLA TYPHIMURIUM, Strain/Indicator: TA1537, Metabolic Activation: NONE, Method: STANDARD PLATE); “inactive; negative” (Test System: AMES SALMONELLA TYPHIMURIUM, Strain/Indicator: TA1537, Metabolic Activation: RAT, LIVER, S-9, AROCLOR 1254, Method: STANDARD PLATE); “inactive; negative” under setting [5]; “inactive; negative” under setting [6].

With `O=NN1CN2CN(C1)CN(N=O)C2`, the mutagenic call was “active; positive (structural and ploidy changes)” (End Point: IN VITRO CHROMOSOMAL ABERRATIONS, Test System: CHL CELLS, Metabolic Activation: RAT, LIVER, S-9, SODIUM PHENOBARBITAL AND 5,6-BENZOFLAVONE); “inactive; negative” under setting [7]; “inactive; negative” (Test System: AMES SALMONELLA TYPHIMURIUM, Strain/Indicator: TA98, Metabolic Activation: RAT LIVER S-9, PHENOBARBITAL AND BETA-NAPHTHOFLAVONE, Method: PREINCUBATION); “active; positive” under setting [8]; “active; positive” (Test System: AMES SALMONELLA TYPHIMURIUM, Strain/Indicator: TA100, Metabolic Activation: RAT LIVER S-9, PHENOBARBITAL AND BETA-NAPHTHOFLAVONE, Method: PREINCUBATION); “inactive; negative” (Test System: AMES SALMONELLA TYPHIMURIUM, Strain/Indicator: TA1535, Metabolic Activation: NONE, Method: PREINCUBATION). The mutagenic call is “inactive; negative” (Test System: AMES SALMONELLA TYPHIMURIUM, Strain/Indicator: TA1535, Metabolic Activation: RAT LIVER S-9, PHENOBARBITAL AND BETA-NAPHTHOFLAVONE, Method: PREINCUBATION); “inactive; negative” (Test System: AMES SALMONELLA TYPHIMURIUM, Strain/Indicator: TA1537, Metabolic Activation: NONE, Method: PREINCUBATION); “inactive; negative” (Test System: AMES SALMONELLA TYPHIMURIUM, Strain/Indicator: TA1537, Metabolic Activation: RAT LIVER S-9, PHENOBARBITAL AND BETA-NAPHTHOFLAVONE, Method: PREINCUBATION); “inactive; negative” (Test System: AMES SALMONELLA TYPHIMURIUM, Strain/Indicator: TA1538, Metabolic Activation: NONE, Method: PREINCUBATION); “inactive; negative” (Test System: AMES SALMONELLA TYPHIMURIUM, Strain/Indicator: TA1538, Metabolic Activation: RAT LIVER S-9, PHENOBARBITAL AND BETA-NAPHTHOFLAVONE, Method: PREINCUBATION); “inactive; negative” (Test System: E.COLI, Strain/Indicator: WP2UVRA, Metabolic Activation: NONE, Method: PREINCUBATION). Where the note is “Test System: E.COLI, Strain/Indicator: WP2UVRA, Metabolic Activation: RAT LIVER S-9, PHENOBARBITAL AND BETA-NAPHTHOFLAVONE, Method: PREINCUBATION”, the mutagenic call is “active; positive”.

Consider `CC(=O)Nc1ccc2ccc3c(O)ccc4ccc1c2c43`, for which the mutagenic call runs as follows: (Test System: AMES SALMONELLA TYPHIMURIUM, Strain/Indicator: TA98(1,8-DNP6), Metabolic Activation: NONE, Method: STANDARD PLATE) “inactive; negative”; (Test System: AMES SALMONELLA TYPHIMURIUM, Strain/Indicator: TA98(1,8-DNP6), Metabolic Activation: RAT, LIVER, S-9, AROCLOR 1254, Method: STANDARD PLATE) “inactive; negative”; under setting [2], “active; positive”; (Test System: AMES SALMONELLA TYPHIMURIUM, Strain/Indicator: YG1024, Metabolic Activation: NONE, Method: STANDARD PLATE) “inactive; negative”; (Test System: AMES SALMONELLA TYPHIMURIUM, Strain/Indicator: YG1024, Metabolic Activation: RAT, LIVER, S-9, AROCLOR 1254, Method: STANDARD PLATE) “active; positive”.

Consider `OC[C@H]1O[C@@H](Oc2ccc(O)cc2)[C@H](O)[C@@H](O)[C@@H]1O`, for which the mutagenic call (Test System: Chinese hamster lung cells, Strain/Indicator: CHL (HPRT)/6-Thioguanine, Metabolic Activation: None, Method: Standard Plate) is “inactive; negative”.

With `N=c1c2ncn(C(c3ccccc3)c3ccccc3)c2ncn1O`, the mutagenic call runs as follows: (Test System: AMES SALMONELLA TYPHIMURIUM, Strain/Indicator: TA97, Metabolic Activation: NONE, Method: STANDARD PLATE) “inactive; negative”; (Test System: AMES SALMONELLA TYPHIMURIUM, Strain/Indicator: TA97, Metabolic Activation: RAT, LIVER, S-9, AROCLOR 1254, Method: STANDARD PLATE) “inactive; negative”; under setting [1], “inactive; negative”; under setting [2], “active; positive”; under setting [3], “inactive; negative”; under setting [4], “inactive; negative”.

Consider `c1cc2ccc3cc4occc4c4ccc(c1)c2c34`, for which the mutagenic call reads like this: under setting [1], “inactive; negative”; under setting [2], “active; positive”.

`CN(C)S(=O)(=O)N(SC(F)(Cl)Cl)c1ccccc1`: the mutagenic call (Test System: AMES SALMONELLA TYPHIMURIUM, Strain/Indicator: TA102, Metabolic Activation: NONE, Method: STANDARD PLATE) is “inactive; negative”; the mutagenic call (Test System: AMES SALMONELLA TYPHIMURIUM, Strain/Indicator: TA102, Metabolic Activation: RAT, LIVER, S-9, PHENOBARBITAL, Method: STANDARD PLATE) was “inactive; negative”; the mutagenic call (Test System: AMES SALMONELLA TYPHIMURIUM, Strain/Indicator: TA104, Metabolic Activation: NONE, Method: STANDARD PLATE) was “inactive; negative”; the mutagenic call (Test System: AMES SALMONELLA TYPHIMURIUM, Strain/Indicator: TA104, Metabolic Activation: RAT, LIVER, S-9, PHENOBARBITAL, Method: STANDARD PLATE) is “inactive; negative”; the mutagenic call (Test System: E. COLI, Strain/Indicator: WP2HCR, Metabolic Activation: NONE, Method: STANDARD PLATE) is “active; positive”; the mutagenic call (Test System: E. COLI, Strain/Indicator: WP2HCR, Metabolic Activation: S-9 MIX, Method: STANDARD PLATE) was “inactive; negative”.

As for `N=c1ccc2c(-c3ccccc3C(=O)O)c3ccc(N)cc3oc-2c1`, the mutagenic call is, setting by setting: under setting [5], “inactive; negative”; under setting [6], “inactive; negative”.

For `CCc1cccc(CC)c1N`, the mutagenic call reads like this: under setting [7], “inactive; negative”; under setting [1], “inactive; negative”; (Test System: AMES SALMONELLA TYPHIMURIUM, Strain/Indicator: TA98, Metabolic Activation: RAT, LIVER, MICROSOMES, PHENOBARBITAL, Method: PREINCUBATION) “inactive; negative”; under setting [2], “active; positive”; under setting [8], “inactive; negative”; under setting [3], “inactive; negative”. Moreover, the mutagenic call by setting is: (Test System: AMES SALMONELLA TYPHIMURIUM, Strain/Indicator: TA100, Metabolic Activation: RAT, LIVER, MICROSOMES, PHENOBARBITAL, Method: PREINCUBATION) “inactive; negative”; under setting [4], “active; positive”; (Test System: Ames Salmonella typhimurium, Strain/Indicator: TA97, Metabolic Activation: None, Method: Suspension) “active; positive”; (Test System: Ames Salmonella typhimurium, Strain/Indicator: TA98, Metabolic Activation: None, Method: Suspension) “active; positive”; (Test System: Ames Salmonella typhimurium, Strain/Indicator: TA100, Metabolic Activation: None, Method: Preincubation) “inactive; negative”; (Test System: Ames Salmonella typhimurium, Strain/Indicator: TA1535, Metabolic Activation: None, Method: Suspension) “inactive; negative”. The mutagenic call runs as follows: (Test System: Ames Salmonella typhimurium, Strain/Indicator: TA1537, Metabolic Activation: None, Method: Suspension) “inactive; negative”; (Test System: Ames Salmonella typhimurium, Strain/Indicator: TA1538, Metabolic Activation: None, Method: Suspension) “active; positive (weak response; no dose response)”.
